Where two headings read alike, the source gives them in different places.
Columns and labels:
[1] = system: small brown planthopper having a low susceptibility to insecticides; test: Small brown planthopper control test, pests having a low susceptibility to insecticides (soil drenching); type: in vivo; conditions: 0.01 mg/seedling soil drenching
Procedure: (§1) Rice seedlings grown in pots were subjected to soil drenching treatment with solutions of the inventive compounds at a predetermined concentration prepared to 10% acetone/water. Three days after treatment, ten second-instar small brown planthopper larvae having a low susceptibility to insecticides were released onto each seedling. The seedlings and insects were then held in an incubation chamber at 25° C. (16-hour period of light, 8-hour dark period). Three days after released, the numbers of live and dead insects were counted, and the mortality was calculated from the following formula. The test was carried out as two replications. Mortality (%)=[number of dead insects/(number of live insects+number of dead insects)]×100
The pests used in this test were insects that had been raised indoors for successive generations over a long period of time (susceptible line), and insects that had been raised indoors for successive generations after being collected in 2006 within Kumamoto Prefecture (field-collected line).

[2] = system: brown rice planthopper having a low susceptibility to insecticides; type: in vivo; conditions: 0.05 mg/seedling soil drenching
Procedure: as §1, with “second-instar” for “second-instar small”, “brown rice” for “brown”
The pests used in this test were insects that had been raised indoors for successive generations over a long period of time (susceptible line), and insects that had been raised indoors for successive generations after being collected (I) in 2007 within Kumamoto Prefecture and (II) in 2005 within Fukuoka Prefecture (field-collected lines).

[3] = system: house fly crude enzyme extract; test: In vitro metabolic test using house fly crude enzyme extract; type: in vitro ADME; conditions: house fly crude enzyme extract with NADP+ regenerating system, 25° C., 40 hours, LC/MS
Procedure: As mentioned in Pest Management Science, 59(3), 347-352 (2003) and the Journal of Pesticide Science, 29(2), 110-116 (2004), imidacloprid is known to be inactivated by incurring oxidative metabolism, which is thought to be one mechanism of acquiring resistance to this agent. The following experiment was carried out to confirm the effects in pests which have acquired such resistance.
An amount of 10 mL of a potassium phosphate buffer solution (pH 7.4, containing 1 mM EDTA) was added to adult house flies (0.645 g), and the flies were thoroughly homogenized in a Physcotron (Niti-On Medical and Physical Instruments Manufacturing Co.). The homogenate was then centrifuged at 10,000 g for 15 minutes. The resulting supernatant was additionally centrifuged at 100,000 g for 60 minutes, giving a precipitate. The precipitate was dissolved in 1 mL of a potassium phosphate buffer, and the resulting solution was used as the crude enzyme extract. The enzyme extraction operations were all carried out on ice or at 4° C.
The reagents were mixed in the following proportions within a 1.5 mL tube, and the reaction was effected at 25° C. for 40 hours. Following the reaction, 1 mL of acetone was added and the mixture was stirred, following which the precipitate that formed was centrifuged at 12,000 rpm for 5 minutes. […]

[4] = system: Haemaphysalis longicornis; type: in vivo; conditions: 10 ppm acetone solution (30 μL) dry film, larval ticks, 1 day after release
Procedure: Glass vials having a capacity of 4 mL were each filled with 30 μL of an acetone solution containing 200 ppm or 10 ppm of the respective compounds. These filled vials were placed on a shaker and air-dried while being spun, thereby forming dry films of the compounds on the inner walls of the vials. After the vials had been dried for at least 24 hours, ten larval ticks (Haemaphysalis longicornis) were released into each vial, following which the vials were capped. The vials were then left at rest in an incubation chamber at 25° C., 85% humidity and complete darkness. One day after released, the numbers of live and dead ticks were counted, and the mortality was calculated from the following formula.
This test was carried out as two replications. Mortality (%)=[number of dead ticks/(number of live ticks+number of dead ticks)]×100

O=[N+]([O-])NC1=NCCN1Cc1ccc(Cl)nc1 [imidacloprid]
Mortality ([1]; field-collected line (2006 Kumamoto Prefecture)): 50%
Mortality ([1]; susceptible line): 100%
Mortality ([2]; field-collected line (I) 2007 Kumamoto Prefecture): 40%
Mortality ([2]; field-collected line (II) 2005 Fukuoka Prefecture): 60%
Mortality ([2]; susceptible line): 100%
Sum of the surface area percentages for the metabolites [3]: 2.55%
Mortality [4]: 4%

— patent publication US10085449B2, “N-[1-((6-chloropyridin-3-yl)methyl)pyridin-2(1H)-ylidene]-2,2,2- trifluoroacetamide for control of agricultural/horticultural pests” (priority 2010, dated 2018)
